Source: ChEMBL document CHEMBL1938244, “Synthesis, anticancer activity and apoptosis inducing ability of bisindole linked pyrrolo[2,1-c][1,4]benzodiazepine conjugates” (2012)
The source made the active and inactive calls. The calls are words filed in the database; no cut-off is given here.

Experiments:
COLO 205 = assay: Anticancer activity against human COLO205 cells by SRB method; format: functional
MCF7 [1] = assay: Induction of cell cycle arrest in human MCF7 cells assessed as accumulation of cells in G2/M phase at 2 uM after 24 hrs by flow cytometry (reference value: 36.23%); format: functional
MCF7 [2] = assay: Induction of cell cycle arrest in human MCF7 cells assessed as accumulation of cells in G2/M phase at 4 uM after 24 hrs by flow cytometry relative to untreated control; format: functional
Tubulin (Homo sapiens) = Tubulin (Homo sapiens) (UniProt P68371+Q9H4B7+P0DPH7+P68366+Q13509+Q71U36+P04350+Q3ZCM7+P07437+P68363+Q9BQE3+Q6PEY2+Q13885+Q9BVA1+Q9BUF5); assay: Inhibition of tubulin polymerization in human MCF7 cells at 2 uM after 24 hrs by FITC-conjugated immunostaining assay; format: cell-based
MCF7 [3] = assay: Induction of cell cycle arrest in human MCF7 cells assessed as accumulation of cells in G2/M phase at 8 uM after 24 hrs by flow cytometry (reference value: 25.65%); format: functional
MCF7 [4] = assay: Induction of cell cycle arrest in human MCF7 cells assessed as accumulation of cells in G2/M phase at 2 uM after 24 hrs by flow cytometry relative to untreated control; format: functional
MCF7 [5] = assay: Induction of cell cycle arrest in human MCF7 cells assessed as accumulation of cells in S phase at 8 uM after 24 hrs by flow cytometry (reference value: 5.55%); format: functional
MCF7 [6] = assay: Induction of cell cycle arrest in human MCF7 cells assessed as accumulation of cells in G0 phase at 2 uM after 24 hrs by flow cytometry relative to untreated control; format: functional
MCF7 [7] = assay: Inhibition of HDAC8 protein expression in human MCF7 cells at 2 uM after 24 hrs by Western blotting; format: functional, cell-based
MCF7 [8] = assay: Inhibition of HDAC3 protein expression in human MCF7 cells at 2 uM after 24 hrs by Western blotting; format: functional, cell-based
MCF7 [9] = assay: Inhibition of HDAC2 protein expression in human MCF7 cells at 2 uM after 24 hrs by Western blotting; format: functional, cell-based
MCF7 [10] = assay: Increase in p21 protein level in human MCF7 cells at 2 uM after 24 hrs by Western blotting; format: functional, cell-based
MCF7 [11] = assay: Induction of cell cycle arrest in human MCF7 cells assessed as accumulation of cells in S phase at 8 uM after 24 hrs by flow cytometry relative to untreated control; format: functional
MCF7 [12] = assay: Inhibition of HDAC1 protein expression in human MCF7 cells at 2 uM after 24 hrs by Western blotting; format: functional, cell-based
MCF7 [13] = assay: Induction of cell cycle arrest in human MCF7 cells assessed as accumulation of cells in S phase at 4 uM after 24 hrs by flow cytometry relative to untreated control; format: functional
MCF7 [14] = assay: Induction of cell cycle arrest in human MCF7 cells assessed as accumulation of cells in G0 phase at 2 uM after 24 hrs by flow cytometry (reference value: 2.9%); format: functional
MCF7 [15] = assay: Induction of cell cycle arrest in human MCF7 cells assessed as accumulation of cells in S phase at 2 uM after 24 hrs by flow cytometry relative to untreated control; format: functional
MCF7 [16] = assay: Induction of cell cycle arrest in human MCF7 cells assessed as accumulation of cells in G0 phase at 8 uM after 24 hrs by flow cytometry relative to untreated control; format: functional
A2780 = assay: Anticancer activity against human A2780 cells by SRB method; format: functional
A549 = assay: Anticancer activity against human A549 cells by SRB method; format: functional
ZR-75-1 = assay: Anticancer activity against human ZR-75-1 cells by SRB method; format: functional
MCF7 [17] = assay: Anticancer activity against human MCF7 cells by SRB method; format: functional
MCF7 [18] = assay: Induction of cell cycle arrest in human MCF7 cells assessed as accumulation of cells in G1 phase at 2 uM after 24 hrs by flow cytometry relative to untreated control; format: functional
MCF7 [19] = assay: Induction of cell cycle arrest in human MCF7 cells assessed as accumulation of cells in G2/M phase at 8 uM after 24 hrs by flow cytometry relative to untreated control; format: functional
MCF7 [20] = assay: Induction of cell cycle arrest in human MCF7 cells assessed as accumulation of cells in G1 phase at 2 uM after 24 hrs by flow cytometry (reference value: 46%); format: functional
MCF7 [21] = assay: Induction of cell cycle arrest in human MCF7 cells assessed as accumulation of cells in G0 phase at 4 uM after 24 hrs by flow cytometry relative to untreated control; format: functional
MCF7 [22] = assay: Induction of cell cycle arrest in human MCF7 cells assessed as accumulation of cells in S phase at 4 uM after 24 hrs by flow cytometry (reference value: 5.55%); format: functional
MCF7 [23] = assay: Induction of cell cycle arrest in human MCF7 cells assessed as accumulation of cells in G2/M phase at 4 uM after 24 hrs by flow cytometry (reference value: 25.65%); format: functional
MCF7 [24] = assay: Induction of cell cycle arrest in human MCF7 cells assessed as accumulation of cells in G1 phase at 8 uM after 24 hrs by flow cytometry relative to untreated control; format: functional
MCF7 [25] = assay: Induction of apoptosis in human MCF7 cells assessed as caspase-7 activation at 8 uM after 24 hrs by Western blot analysis; format: functional, cell-based
SiHa = assay: Anticancer activity against human SiHa cells by SRB method; format: functional
MCF7 [26] = assay: Anticancer activity against human MCF7 cells assessed as cell death at 2 uM after 24 hrs by MTT assay; format: functional
MCF7 [27] = assay: Induction of cell cycle arrest in human MCF7 cells assessed as accumulation of cells in G1 phase at 8 uM after 24 hrs by flow cytometry (reference value: 65.58%); format: functional
MCF7 [28] = assay: Induction of cell cycle arrest in human MCF7 cells assessed as accumulation of cells in G1 phase at 4 uM after 24 hrs by flow cytometry (reference value: 65.58%); format: functional
MCF7 [29] = assay: Induction of cell cycle arrest in human MCF7 cells assessed as accumulation of cells in G0 phase at 4 uM after 24 hrs by flow cytometry (reference value: 3.22%); format: functional
MCF7 [30] = assay: Induction of cell cycle arrest in human MCF7 cells assessed as accumulation of cells in G0 phase at 8 uM after 24 hrs by flow cytometry (reference value: 3.22%); format: functional
MCF7 [31] = assay: Induction of cell cycle arrest in human MCF7 cells assessed as accumulation of cells in S phase at 2 uM after 24 hrs by flow cytometry (reference value: 14.87%); format: functional
KB = assay: Anticancer activity against human KB cells by SRB method; format: functional
MCF7 [32] = assay: Induction of cell cycle arrest in human MCF7 cells assessed as accumulation of cells in G1 phase at 4 uM after 24 hrs by flow cytometry relative to untreated control; format: functional
MCF7 [33] = assay: Induction of apoptosis in human MCF7 cells assessed as PARP-cleavage at 8 uM after 24 hrs by Western blot analysis; format: functional, cell-based

SMILES | GI50 (COLO 205) [µM] | Activity (MCF7 [1]) [%] | Activity (MCF7 [2]) [%] | inhibition (Tubulin (Homo sapiens)) | Activity (MCF7 [3]) [%] | Activity (MCF7 [4]) [%] | Activity (MCF7 [5]) [%] | Activity (MCF7 [6]) [%] | inhibition (MCF7 [7]) | inhibition (MCF7 [8]) | inhibition (MCF7 [9]) | Activity (MCF7 [10]) | Activity (MCF7 [11]) [%] | inhibition (MCF7 [12]) | Activity (MCF7 [13]) [%] | Activity (MCF7 [14]) [%] | Activity (MCF7 [15]) [%] | Activity (MCF7 [16]) [%] | GI50 (A2780) [nM] | GI50 (MCF7 [17]) [nM] | other results
COc1cc2c(cc1OCCCCCOc1ccc(C(c3c[nH]c4ccccc34)c3c[nH]c4ccccc34)cc1)N=C[C@@H]1CCCN1C2=O | 26.1 | 45.19 | 8.6 | Active | 1.75 | 46.67 | 2.04 | 3.57 | Active | Active | Active | Active | 2.32 | Active | 6.95 | 3.96 | 9.08 | 50.15 | 110 | 140 | GI50 (A549): 2400 nM; GI50 (ZR-75-1): 120 nM; Activity (MCF7 [18]): 40.67%; Activity (MCF7 [19]): 1.41%; Activity (MCF7 [20]): 41.51%; Activity (MCF7 [21]): 16.11%; Activity (MCF7 [22]): 6.97%; Activity (MCF7 [23]): 8.35%; Activity (MCF7 [24]): 46.11%; Activity (MCF7 [25]): Active; GI50 (SiHa): 180 nM; Activity (MCF7 [26]): 50%; Activity (MCF7 [27]): 44.26%; Activity (MCF7 [28]): 68.23%; Activity (MCF7 [29]): 16.45%; Activity (MCF7 [30]): 51.96%; Activity (MCF7 [31]): 9.34%; GI50 (KB): 130 nM; Activity (MCF7 [32]): 68.33%; Activity (MCF7 [33]): Active
COc1cc2c(cc1OCCCCCOc1cccc(C(c3c[nH]c4ccccc34)c3c[nH]c4ccccc34)c1)N=C[C@@H]1CCCN1C2=O | 0.16 | 42.61 | 10.74 | Active | 9.38 | 42.67 | 4.82 | 2.98 | Active | Active | Active | Active | 5.26 | Active | 8.26 | 3.47 | 15.42 | 24.81 | 180 | 190 | Activity (MCF7 [18]): 38.86%; Activity (MCF7 [19]): 8.99%; Activity (MCF7 [20]): 39.36%; Activity (MCF7 [21]): 10.7%; Activity (MCF7 [22]): 8.67%; Activity (MCF7 [23]): 9.08%; Activity (MCF7 [24]): 60.92%; Activity (MCF7 [25]): Active; GI50 (SiHa): 2200 nM; Activity (MCF7 [26]): 50%; Activity (MCF7 [27]): 61.55%; Activity (MCF7 [28]): 71.85%; Activity (MCF7 [29]): 10.4%; Activity (MCF7 [30]): 24.25%; Activity (MCF7 [31]): 14.56%; GI50 (KB): 2300 nM; Activity (MCF7 [32]): 70.29%; Activity (MCF7 [33]): Active
